# Like-named read-outs stand apart in the source and are kept apart here.
# Key:
# UM-SCC-12 [1] = experiment: Trypan blue exclusion cell death, UM-SCC-12; type: cell-based, human; settings: 10 μM, 48 hour
# Protocol: (§1) Cells were seeded in 24 or 96-well-plates and gossypol compounds were prepared at 2-10 fold dilutions in suitable medium. […] Cell viability was then determined by the trypan-blue assays. Inhibition of cell growth was determined by treating cells with gossypol compounds for 3-6 days. Cell inhibition was determined using XTT. In some embodiments, MTT assays are used to determine cell inhibition.
# [2] = tested on: Fib-3 (fibroblast cell line 3); experiment: 6-day MTT cell growth, Fib-3; type: cell-based, human; settings: read-out: IC50, inhibition of cell growth
# Protocol: (§2) UM-SCC and human fibroblast cell lines were continuously exposed to varying concentrations of (−)-gossypol in 6-day MTT cell survival assays. Control wells contained media (DMEM) with vehicle alone. For each data point n=5.
# (§3) Ten squamous cell carcinoma cell lines established at the University of Michigan (UM-SCC) and three human fibroblast lines were grown in Dulbecco's modified Eagle's medium (DMEM) supplemented with 10% fetal bovine serum. UM-SCC cell lines originated from the larynx (n=2; UM-SCC-12, -23), oral cavity/oropharynx (n=5; UM-SCC-1, -6, -14A, -74B, -81B), hypopharynx (n=1; UM-SCC-22A) and metastases from laryngeal cancers (n=2; UM-SCC-17B, -25). Human fibroblast cell lines originated from surgical specimens (fibroblast cell lines 2 and 3) and neonatal foreskin samples (fibroblast cell line 1).
# (§4) Logarithmically growing cell lines were cultured, washed, counted, and plated at 5,000-15,000 cells per well in duplicate wells of 96-well plates and incubated in DMEM overnight. […] The MTT assay measures cell survival based on mitochondrial conversion of MTT from a soluble tetrazolium salt into an insoluble colored formazan precipitate, which is dissolved in dimethyl sulfoxide and quantitated by spectrophotometry. […] Percent absorbance relative to control was plotted as a linear function of drug concentration.
# fibroblast cell lines = experiment: Flow cytometric TUNEL apoptosis assay, fibroblast cell lines; type: cell-based, human; settings: 10 μM, 48-hour
# Protocol: (§5) Briefly, FIGS. 24A-24C show apoptosis after (−)-gossypol as measured by a fluorescent flow cytometric TUNEL assay. Open peaks represent BrdU labeling of untreated cells. Shaded peaks indicate BrdU labeling of cell populations following 48-hour treatment with 10 μM (−)-gossypol; FIG. 24A, UM-SCC-cell lines with wild type p53; FIG. 24B, UM-SCC-cell lines with mutant p53; and FIG. 24C normal fibroblast cells.
# (§6) Apoptosis of UM-SCC cell lines following (−)-gossypol treatment was quantitatively detected by enzymatic labeling of DNA strand breaks using terminal deoxynucleotidyltransferase (TdT) and Alexa Fluor-BrdUTP, known as the TdT-UTP nick end-labeling (TUNEL) assay by flow cytometry. Cells were exposed to (−)-gossypol for 48 hours, harvested, fixed and TUNEL stained according to the manufacturer's protocol (Molecular Probes Inc., Eugene, Oreg.). Ten thousand cells were analyzed per sample using excitation of Alexa Fluor at 488 nm. Apoptotic index (AI) was defined as percent of apoptotic cells in the treatment population minus that in the vehicle control population.
# [3] = tested on: human breast cancer MDA-MB-231 (2LMP) xenograft; settings: Table 8
# UM-SCC-12 [4] = experiment: Flow cytometric TUNEL apoptosis assay, UM-SCC-12; type: cell-based, human; settings: 10 μM, 48-hour
# Protocol: as §5, §6
# [5] = tested on: Fib-1 (fibroblast cell line 1); experiment: 6-day MTT cell growth, Fib-1; type: cell-based, human; settings: read-out: IC50, inhibition of cell growth
# Protocol: as §2, §3, §4
# UM-SCC-14A [6] = experiment: Trypan blue exclusion cell death, UM-SCC-14A; type: cell-based, human; settings: 10 μM, 48 hour
# Protocol: as §1
# [7] = biological target: T1, Bcl-XL and pro-apoptotic protein Bim (Homo sapiens, UniProt Q07817); experiment: Immunoprecipitation of Bcl-XL/Bim heterodimerization in HT-29 cells; type: cell-based; settings: HT-29, starting at 8 hrs
# T1 construct: endogenous in cells; host or cells: HT-29 colon cancer cells
# Protocol: In one embodiment HT-29 colon cancer cells, which express only the Bcl-xL protein, were treated with (−)-gossypol at various doses for 4 hrs, 8 hrs, and 12 hrs. To avoid the detergent effects on the dimerization of Bcl-xL proteins in immunoprecipitation experiments, following the treatment of cells with gossypol, immunoprecipitation of cell lysates was carried out in the Chaps buffer with the anti-Bcl-XL antibody. The Bcl-XL bound proteins were then immunoblotted with anti-Bim antibody. […] There is no change in the total Bcl-XL or Bim protein in the same lysates following the (−)-gossypol treatment.
# [8] = tested on: PC-3 prostate cancer cell line; experiment: Annexin V-FITC/PI apoptosis with TXT or CDDP, PC-3; type: cell-based, human; settings: PC-3, 48 hrs
# From the text: (§7) The present invention is not limited to any mechanism. Indeed, a mechanistic understanding of the invention is unnecessary to practice (make and use) the present compositions and methods.
# HNSCC cell lines = experiment: 6-day MTT cell survival, mean over HNSCC cell lines; type: cell-based, human
# [9] = tested on: PC-3 prostate cancer cells; experiment: MTT-based 5-day cell proliferation, PC-3; set-up: species or system human
# From the text: as §7
# Bcl-XL = biological target: T2, Bcl-XL (Homo sapiens, UniProt Q07817, DEL45-84); experiment: FP binding assay, Flu-Bid 21-residue peptide and Bcl-XL (FIG. 5, 46)
# T2 construct: His-tag (N); made in house
# UM-SCC-17B = experiment: 6-day MTT cell growth, UM-SCC-17B; type: cell-based, human; settings: read-out: IC50, inhibition of cell growth
# Protocol: as §2, §3, §4
# UM-SCC-1 = experiment: Flow cytometric TUNEL apoptosis assay, UM-SCC-1; type: cell-based, human; settings: 10 μM, 48-hour
# Protocol: as §5, §6
# UM-SCC-14A [10] = experiment: Flow cytometric TUNEL apoptosis assay, UM-SCC-14A; type: cell-based, human; settings: 10 μM, 48-hour
# Protocol: as §5, §6
# UM-SCC-74B = experiment: 6-day MTT cell growth, UM-SCC-74B; type: cell-based, human; settings: read-out: IC50, inhibition of cell growth
# Protocol: as §2, §3, §4
# UM-SCC-81B = experiment: 6-day MTT cell growth, UM-SCC-81B; type: cell-based, human; settings: read-out: IC50, inhibition of cell growth
# Protocol: as §2, §3, §4
# UM-SCC-12 [11] = experiment: 6-day MTT cell growth, UM-SCC-12; type: cell-based, human; settings: read-out: IC50, inhibition of cell growth
# Protocol: as §2, §3, §4
# [12] = Table 17 (content identical to Table 18)
# [13] = Table 18, PC-3 xenograft, (−)-gossypol 10 mg/kg orally for 4 weeks, radiation 2 Gy 5 times/week
# T1 sequence (Q07817 whole entry): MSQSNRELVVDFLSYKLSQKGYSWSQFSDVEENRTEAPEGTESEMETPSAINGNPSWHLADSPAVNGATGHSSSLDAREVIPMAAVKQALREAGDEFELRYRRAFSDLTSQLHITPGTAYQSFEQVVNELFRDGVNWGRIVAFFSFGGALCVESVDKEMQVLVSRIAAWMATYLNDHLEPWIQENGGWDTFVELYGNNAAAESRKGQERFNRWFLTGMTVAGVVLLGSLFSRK
# T2 sequence (Q07817 with tags, fused parts or gaps DEL45-84 limits assumed): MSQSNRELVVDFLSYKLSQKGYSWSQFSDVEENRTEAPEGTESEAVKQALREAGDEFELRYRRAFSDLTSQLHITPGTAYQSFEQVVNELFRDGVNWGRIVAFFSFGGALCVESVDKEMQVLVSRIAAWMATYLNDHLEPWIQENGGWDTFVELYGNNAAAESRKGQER
smiles,measurement,setting,value
Cc1cc2c(C(C)C)c(O)c(O)c(C=O)c2c(O)c1-c1c(C)cc2c(C(C)C)c(O)c(O)c(C=O)c2c1O [(−)-gossypol],surviving (trypan blue excluding) fraction relative to untreated controls,UM-SCC-12 [1],14%
same,IC50,[2],18 µM
same,induction of apoptosis,fibroblast cell lines,no induction of apoptosis
same,tumor growth inhibition,"[3]; (−)-gossypol 7.5 mg/kg p.o. in combination with docetaxel 7.5 mg/kg i.v., p < 0.01",there was more than 90% tumor
same,tumor growth inhibition,"[3]; (−)-gossypol 30 mg/kg p.o. q day for 4 weeks, alone","30 mg/kg of G-, there was 40%"
same,anti-tumor effect,[3]; (−)-gossypol 15 or 7.5 mg/kg p.o. alone,did not achieve significant anti-
same,tumor growth inhibition,"[3]; (−)-gossypol at any of the three doses (7.5, 15, 30 mg/kg p.o.) in combination with docetaxel 7.5 mg/kg i.v.",all achieved significant tumor
same,"tumor regression, number of mice","[3]; (−)-gossypol in combination with docetaxel, 8 mice per group",There was tumor regression in 3 mice
same,inhibition of tumor growth by (−)-gossypol alone,"[3]; MDA-231 fat-pad xenografts, Balb/c nude mouse, 7.5, 15 or 30 mg/kg p.o. q day for 4 weeks, alone",There was dose-dependent
same,apoptotic index (AI),UM-SCC-12 [4],27.2%
same,IC50,[5],20 µM
same,surviving (trypan blue excluding) fraction relative to untreated controls,UM-SCC-14A [6],16%
same,binding of Bcl-XL and Bim in intact cells,[7],dose-dependent decrease in the binding of Bcl-XL and pro-apoptotic protein Bim
same,effect on activity of docetaxel and cisplatin,[8],enhanced the activities of docetaxel and cisplatin (CDDP) in inhibiting cell growth and inducing apoptosis
same,IC50,HNSCC cell lines,5.57 ± 2.57 µM
same,potency in inhibiting cancer cell growth relative to (+)-gossypol,[9],5-10 times
same,potency in inhibiting cancer cell growth relative to racemic gossypol,[9],2 times
same,inhibition of binding between Bad BH3 peptide and Bcl-XL,Bcl-XL,directly inhibit binding between Bad BH3 peptide and Bcl-XL
same,IC50,UM-SCC-17B,5 µM
same,toxicity by bodyweight measurements,PC-3 xenograft; (−)-gossypol 10 mg/kg with or without radiation,no significant toxicity
same,antitumor effect,"PC-3 xenograft; (−)-gossypol alone, 10 mg/kg oral, 4 weeks",minimal antitumor effect
same,"tumor growth inhibition compared with vehicle control, day 39","PC-3 xenograft; Table 14, (−)-gossypol 10 mg/kg p.o. in combination with radiation 2 Gy per day, total 30 Gy",achieved 93% tumor growth
same,"tumor growth inhibition, day 39","PC-3 xenograft; Table 14, PC-3 flank xenografts (~150 mm^3 at start), (−)-gossypol 10 mg/kg p.o. 5 times q week for 4 weeks, alone, not significant","regimen (about 20%, P = 0.3 or 0.7,"
same,Tumor Growth Delay (T − C Days),PC-3 xenograft; [12],0 days
same,Tumor Growth Inhibition (T/C %),PC-3 xenograft; [12],98.6%
same,Tumor Growth Delay (T − C Days),PC-3 xenograft; [13],0 days
same,Tumor Growth Inhibition (T/C %),PC-3 xenograft; [13],98.6%
same,apoptotic index (AI),UM-SCC-1,90.1%
same,apoptotic index (AI),UM-SCC-14A [10],14.1%
same,IC50,UM-SCC-74B,4 µM
same,IC50,UM-SCC-81B,4 µM
same,IC50,UM-SCC-12 [11],4 µM

# Source: patent US8163805B2, “Small molecule antagonists of Bcl-2 family proteins” (The Regents of the University of Michigan, priority 2001, dated 2012)
